Laboratory results from paper PMC9669019, “Molecular basis for integrin adhesion receptor binding to p21-activated kinase 4 (PAK4)” (Communications Biology, 2022).
Ends that are not written are not given here.

What was measured:
[1] = test system: GFP-PAK4-Δcat; test: GST-integrin β5 fusion pull-down of GFP-PAK4-Δcat expressed in cells; format: binding, human; conditions: Figure 1C source data
Experimental: (§1) For pulldowns from cell lysates, human PAK4 constructs were generated in pEGFP (Takara Bio Inc.) by PCR amplification from a pLX304 PAK4 isoform 1 (Uniprot O96013-1) construct kindly provided by Michael Calderwood (Dana-Farber Cancer Institute). Mutations and deletions were introduced by QuikChange mutagenesis or PCR amplification. Chinese hamster ovary (CHO) cells were seeded on 10 cm tissue culture dishes and transiently transfected with GFP-tagged constructs using polyethylenimine (Polysciences). After 24 h, cells were harvested and lysed in buffer X (1 mM NaVO4, 50 mM NaF, 40 mM sodium pyrophosphate, 50 mM NaCl, 150 mM sucrose, 10 mM Pipes, pH 6.8) containing 0.5% Triton X-100, 0.2% deoxycholic acid, and complete EDTA-free protease inhibitor mixture (Roche, Indianapolis, IN, USA) for 15 min at 4 °C. After clarification by centrifugation, lysate was diluted in buffer X-T (buffer X with 0.05% Triton X-100) and incubated with His-tagged integrin tails coupled to Ni-NTA beads for 4 h with rocking at 4 °C. For experiments using purified PAK4cat, protein was incubated with His-tagged integrin tails coupled to Ni-NTA beads in buffer X-T for 2 h with rocking at 4 °C. Beads were then washed three times with buffer X-T, and bound proteins were fractionated by reducing SDS-PAGE and analyzed by immunoblotting with anti-GFP antibodies (600-101-215, Rockland). Immunoblots were imaged on an Odyssey IR imaging system (Li-Cor; Lincoln, NE, USA) and analyzed using Image Studio Lite (Li-Cor; Lincoln, NE, USA). For the quantification of binding from immunoblots, the fluorescence intensity of the band corresponding to bound material was quantified as a fraction of the fluorescence of the input material band for each condition. Loading of integrin tails was assessed by Coomassie Blue staining. Data were analyzed using GraphPad Prism.

[2] = test system: GFP-PAK4-cat; test: GST-integrin β5 fusion pull-down of GFP-PAK4-cat expressed in cells; format: binding, human; conditions: Figure 1C source data
Experimental: as §1

[3] = test system: PAK4-cat; test: Pull-down of purified recombinant PAK4-cat by His-tagged integrin tails on Ni-NTA beads; format: binding, human
Experimental: Pull down assays were performed as previously described[45],[60]. Briefly, constructs encoding an N-terminal His-tag followed by a helical region, a 4-glycine spacer, and an integrin cytoplasmic tail sequence were produced in BL21 (DE3) bacteria. Following bacterial cell lysis, recombinant protein was bound to Ni-NTA beads, eluted with imidazole, dialyzed and further purified by reverse-phase high-performance liquid chromatography (HPLC). Purified protein was lyophilized for storage and was used to coat fresh Ni-NTA beads to generate an affinity matrix for pull-down assays.
as §1

[4] = test system: PAK4cat; test: Radioactive kinase assay with MBP as substrate; format: biochemical, human; conditions: in vitro kinase assay, full-length tail 6-50 μM
Experimental: Impact of full-length cytosolic integrin β5 on kinase activity was assessed using a radioactive assay with myelin basic protein (MBP) as substrate. Assays were performed by addition of 0.1 µM of PAK4cat kinase, 2 µM of MBP, cytosolic full-length integrin β5 ^743–799 (50, 25, 12, and 6 μM), with 12 µM of cold ATP and 0.05 µCi of hot [γ33-P] ATP in Tris buffer (20 mM Tris-HCl (pH 8.0), 0.3 M NaCl, 1 mM TCEP, and 10 mM MgCl2) with a total volume of 25 µL. The reaction was conducted at 30 °C for 7–11 min then stopped by the addition of 5× sample buffer and analyzed by SDS-PAGE. Dried gels were analyzed by exposure to phosphor storage screen (GE Healthcare) followed by scanning using a Molecular Imager FX Pro Plus System (Bio-Rad) and quantified by optical densitometry Quantity One (Bio-Rad). Measurements were calculated from three independent experiments. Significant differences were calculated by Prism 7 (GraphPad Software) with ANOVA analysis. Impact of short integrin β5 peptide on kinase activity was assessed using a radioactive assay with a LIM kinase peptide (RKKRYTVVGN, LIMtide) as substrate. The concentration of PAK4 and LIMtide were kept constant at 0.2 and 50 µM, respectively. […] Duplicate measurements were calculated from three independent experiments. […]

[5] = target: T1, PAK4 (Homo sapiens, UniProt O96013); test: In vitro phosphorylation of integrin β5 tail by PAK4; format: biochemical; conditions: in vitro kinase assay, Fig. 5a
T1 construct: catalytic domain of PAK4 (UniProt ID:O96013) was sub-cloned into a modified pET28a vector; 6xHis (TEV-cleavable) (N); made in house; host or cells: E. coli BL21-CodonPlus(DE3)RILP
T1 sequence (O96013 321-572 limits assumed): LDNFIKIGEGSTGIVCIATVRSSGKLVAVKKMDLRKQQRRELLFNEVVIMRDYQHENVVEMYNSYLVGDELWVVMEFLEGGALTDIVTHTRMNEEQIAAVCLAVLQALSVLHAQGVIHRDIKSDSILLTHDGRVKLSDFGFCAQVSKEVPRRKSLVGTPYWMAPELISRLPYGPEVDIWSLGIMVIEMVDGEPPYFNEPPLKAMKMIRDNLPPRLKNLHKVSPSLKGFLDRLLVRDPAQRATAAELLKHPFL

[6] = test system: PAK6; test: In vitro phosphorylation of integrin β5 tail by PAK6; format: biochemical; conditions: in vitro kinase assay, Fig. 5a

## B5 746-758: GST-fusion truncation of integrin β5 tail ending at residue 758 (VTIHDRREFAKFQ; also: GST fusion, end not given here; UniProt P18084 746-758, looked up, fragment)
[1]; replicate 3
  PAK4 Nterm bound (pull-down quantification): 0
[1]; replicate 4
  PAK4 Nterm bound (pull-down quantification): 0.03887
[1]; replicate 5
  PAK4 Nterm bound (pull-down quantification): 0.08311
[1]; replicate 6
  PAK4 Nterm bound (pull-down quantification): 0
[1]; replicate 7
  PAK4 Nterm bound (pull-down quantification): 0
[2]; bound band as fraction of input, replicate column 1 of 7
  PAK4 Cat bound (pull-down quantification): 0.2198
[2]; replicate column 6 of 7
  PAK4 Cat bound (pull-down quantification): 0.1642
[2]; replicate column 7 of 7
  PAK4 Cat bound (pull-down quantification): 0.1513

## B5 746-762: GST-fusion truncation of integrin β5 tail ending at residue 762 (VTIHDRREFAKFQSERS; also: GST fusion, end not given here; UniProt P18084 746-762, looked up, fragment)
[1]; replicate 6
  PAK4 Nterm bound (pull-down quantification): 0
[1]; replicate 7
  PAK4 Nterm bound (pull-down quantification): 0
[2]; replicate column 6 of 7
  PAK4 Cat bound (pull-down quantification): 0.1712
[2]; replicate column 7 of 7
  PAK4 Cat bound (pull-down quantification): 0.5556

## integrin β5 cytoplasmic tail: Recombinant His-tagged integrin β5 cytoplasmic tail, residues 743–799 (KLLVTIHDRREFAKFQSERSRARYEMASNPLYRKPISTHTVDFTFNKFNKSYNGTVD; also: 6xHis tag)
[3]; 5 nM PAK4Cat, replicate 2
  PAK4Cat bound to tail (pull-down quantification): 4.211
[3]; 50 nM PAK4Cat, replicate 1
  PAK4Cat bound to tail (pull-down quantification): 47.6856
[3]; 50 nM PAK4Cat, replicate 2
  PAK4Cat bound to tail (pull-down quantification): 66.5041
[3]; 100 nM PAK4Cat, replicate 1
  PAK4Cat bound to tail (pull-down quantification): 90.1913
[3]; 100 nM PAK4Cat, replicate 2
  PAK4Cat bound to tail (pull-down quantification): 166.368
[3]; 200 nM PAK4Cat, replicate 1
  PAK4Cat bound to tail (pull-down quantification): 112.727
[3]; 200 nM PAK4Cat, replicate 2
  PAK4Cat bound to tail (pull-down quantification): 69.6949
[3]; 500 nM PAK4Cat, replicate 1
  PAK4Cat bound to tail (pull-down quantification): 260.384
[3]; 500 nM PAK4Cat, replicate 2
  PAK4Cat bound to tail (pull-down quantification): 185.982
[3]; 750 nM PAK4Cat, replicate 2
  PAK4Cat bound to tail (pull-down quantification): 239.04
[3]; 1000 nM PAK4Cat, replicate 1
  PAK4Cat bound to tail (pull-down quantification): 443.221
[3]; 1000 nM PAK4Cat, replicate 2
  PAK4Cat bound to tail (pull-down quantification): 367.326
[3]; 2000 nM PAK4Cat, replicate 2
  PAK4Cat bound to tail (pull-down quantification): 619.089
[3]; 2000 nM PAK4Cat, replicate 3
  PAK4Cat bound to tail (pull-down quantification): 750
[3]; 3000 nM PAK4Cat, replicate 1
  PAK4Cat bound to tail (pull-down quantification): 966.407
[3]; 3000 nM PAK4Cat, replicate 2
  PAK4Cat bound to tail (pull-down quantification): 705.982
[3]; 4000 nM PAK4Cat, replicate 2
  PAK4Cat bound to tail (pull-down quantification): 871.714
[3]; 5000 nM PAK4Cat, replicate 3
  PAK4Cat bound to tail (pull-down quantification): 875
[3]; Figure 1D source data, 5 nM PAK4Cat, replicate 1
  PAK4Cat bound to tail (pull-down quantification): 9.128
[4]
  Effect on PAK4 catalytic activity: suppression of catalytic activity
[5]
  Kinase activity of PAK4 towards the integrin β5 tail (phosphorylation, words): negligible
[6]
  Phosphorylation of integrin β5 by PAK6: does not display strong phosphorylation
